Assay results from patent EP0462585B1, “Herbicidal composition” (ISHIHARA SANGYO KAISHA, LTD., priority 1990, dated 1991).
Counter-ions that a name gives are not always drawn. Like-named read-outs stand apart in the source and are kept apart here.

Assays:
Assay type in all cases: in vivo
Solidago altissima = experiment: Test Example 1 foliage treatment test, fresh weight of foliage; conditions: foliar, 600 h, read-out: Growth Inhibition Rate (%)
Description: Upland soil was placed in 1/5000-are (are (a) = 100 m²) wagner pots and planted with hills of Solidago altissima collected in the fields, and the hills were thereafter grown in a greenhouse. When the plant height reached 20 to 30 cm, a predetermined amount of each herbicidal composition which had been diluted with 15 ℓ, per are, of water and further admixed with 0.05 % (v/v) of a spreader (Shin Rino®: manufactured by Nihon Nohyaku Co., Ltd.) was foliarly applied on the plants using a small spray gun. 25 days after the foliage treatment application, the fresh weight of foliage was measured. The growth inhibition rate (%), which is listed in Table 1, was calculated according to the following equation: Growth Inhibition Rate (%) = (1 -(Fresh Weight of Foliage in Treated Plot)/(Fresh Weight of Foliage in Untreated Plot)) x 100 [formula]

Digitaria sanguinalis = experiment: Test Example 2 foliage treatment test, fresh weight of aerial part; Colby expected value; conditions: foliar, 480 h, read-out: Growth Inhibition Rate (%) Found
Description: However, there may be a case that when two kinds of active ingredients are applied in combination, the resulting herbicidal activity is higher than one obtained by simply summing up the activity of each of the two active ingredients (i.e., an expected activity). In such a case, it is said that a synergistic action is found. The expected activity which is brought by a specific combination of two kinds of herbicides can be calculated by the following equation as described, for example, in S.R. Colby, Weeds, "Calculating Synergistic and Antagonistic Responses of Herbicide Combinations", Vol. 15, pp. 20-22 (1967). E = α + β -(α x β)/(100) [formula] In the above equation, α represents a growth inhibition rate (%) when treated with a (g/are) of herbicide A; β represents a growth inhibition rate (%) when treated with b (g/are) of herbicide B; and E represents an expected growth inhibition rate (%) when treated with a (g/are) of herbicide A and b (g/are) of herbicide B.
Upland soil was placed in 1/10000-are pots and sown with Digitaria sanguinalis. When the plants reached the four-leaf stage, a predetermined amount of each herbicidal composition which had been diluted with 15 ℓ, per are, of water and further admixed with 0.2 % (v/v) of a spreader (Shin Rino®) was foliarly applied on the plants using a small spray gun. 20 days after the foliage treatment application, the fresh weight of the aerial part of the plant was measured. The growth inhibition rate (%) calculated by the equation given in Test Example 1 (found value) and the growth inhibition rate (%) calculated by the above-cited Colby equation (calculated value) are listed in Table 2.

[1] = test system: weeds such as Solidago altissima, Agropyron smithii and Digitaria sanguinalis; experiment: Test Example 3 field foliage treatment test, visual rating of herbicidal effect; conditions: visual observation 30 days after foliage treatment
Description: In a field where weeds such as Solidago altissima, Agropyron smithii and Digitaria sanguinalis had been growing mixedly, foliage treatment application of a predetermined amount of each herbicidal composition which had been diluted with 15 ℓ, per are, of water and further admixed with 0.05 % (v/v) of a spreader (Shin Rino®) was done using a small spray gun when the average plant height of these weeds reached 20 to 40 cm. 30 days after the foliage treatment application, the herbicidal effect of the herbicidal composition was examined through visual observation according to the following evaluation criteria.

CP(=O)(O)CCC(N)C(=O)O (racemic) [Ammonium salt of D,L-isomer of Compound B, D,L-homoalanin-4-yl(methyl)phosphinic acid]
inhibition at 250 g/ha (Solidago altissima): 55% | inhibition at 500 g/ha (Solidago altissima): 72% | inhibition at 1000 g/ha (Solidago altissima): 84% | inhibition at 30 g/ha (Digitaria sanguinalis): 0.9% | inhibition at 50 g/ha (Digitaria sanguinalis): 12.8% | inhibition at 100 g/ha (Digitaria sanguinalis): 35.8% | inhibition at 200 g/ha (Digitaria sanguinalis): 52.3% | inhibition at 300 g/ha (Digitaria sanguinalis): 85% | inhibition at 400 g/ha (Digitaria sanguinalis): 90% | inhibition at 1000 g/ha (Digitaria sanguinalis): 100% | Rating ([1]; 5 g/a active ingredient): 5 (50 to 59) | Rating ([1]; 10 g/a active ingredient): 7 (70 to 79)

CP(=O)(O)CC[C@H](N)C(=O)O [Ammonium salt of L-isomer of Compound B, L-homoalanin-4-yl(methyl)phosphinic acid]
inhibition at 125 g/ha (Solidago altissima): 48% | inhibition at 250 g/ha (Solidago altissima): 68% | inhibition at 500 g/ha (Solidago altissima): 77% | Rating ([1]; 5 g/a active ingredient): 5 (50 to 59) | Rating ([1]; 10 g/a active ingredient): 6 (60 to 69)

COc1cc(OC)nc(NC(=O)NS(=O)(=O)c2ncccc2C(F)(F)F)n1 [Compound A, 1-(4,6-dimethoxypyrimidin-2-yl)-3-(3-trifluoromethyl-2-pyridylsulfonyl)urea]
inhibition at 25 g/ha (Solidago altissima; 0.25 g/a active ingredient, 25 days after foliage treatment): 46% | inhibition at 50 g/ha (Solidago altissima; 0.5 g/a active ingredient, 25 days after foliage treatment): 51% | inhibition at 100 g/ha (Solidago altissima; 1 g/a active ingredient, 25 days after foliage treatment): 63% | inhibition at 5 g/ha (Digitaria sanguinalis; 0.05 g/a active ingredient, 20 days after foliage treatment): 0% | inhibition at 10 g/ha (Digitaria sanguinalis; 0.1 g/a active ingredient, 20 days after foliage treatment): 3.5% | inhibition at 20 g/ha (Digitaria sanguinalis; 0.2 g/a active ingredient, 20 days after foliage treatment): 5.3% | inhibition at 40 g/ha (Digitaria sanguinalis; 0.4 g/a active ingredient, 20 days after foliage treatment): 16.9% | inhibition at 60 g/ha (Digitaria sanguinalis; 0.6 g/a active ingredient, 20 days after foliage treatment): 47.4% | inhibition at 100 g/ha (Digitaria sanguinalis; 1 g/a active ingredient, 20 days after foliage treatment): 67.3% | inhibition at 500 g/ha (Digitaria sanguinalis; 5 g/a active ingredient, 20 days after foliage treatment): 99.4% | Rating ([1]; 0.5 g/a active ingredient): 5 (50 to 59) | Rating ([1]; 1 g/a active ingredient): 6 (60 to 69)

C[C@H](NC(=O)[C@H](C)NC(=O)C(N)CCP(C)(=O)O)C(=O)O (stereo partly drawn) [Sodium salt of L-isomer of Compound C, L-2-amino-4-[(hydroxy)(methyl)phosphinoyl]butyryl-L-alanyl-L-alanine]
inhibition at 250 g/ha (Solidago altissima; 2.5 g/a active ingredient, 25 days after foliage treatment): 51% | inhibition at 500 g/ha (Solidago altissima; 5 g/a active ingredient, 25 days after foliage treatment): 70% | inhibition at 1000 g/ha (Solidago altissima; 10 g/a active ingredient, 25 days after foliage treatment): 79% | Rating ([1]; 5 g/a active ingredient): 5 (50 to 59) | Rating ([1]; 10 g/a active ingredient): 6 (60 to 69)
